Results reported in publication PMC12806164, “Epithelial Heparan Sulfate Promotes Staphylococcus aureus Corneal Infection by Inhibiting Cathelicidins” (Proteoglycan research, 2025).
No end group written: not given here.

Experiments:
LL-37 = assay: Inhibition by glycosaminoglycans of S. aureus killing by LL-37; type: cell-based, human; details: 5 μg/mL glycosaminoglycan, 1 μM LL-37, ~500 cfu USA300, phosphate buffer pH 7.4, 2 h at 37°C, n = 6
Experimental: (§1) Samples were plated onto TSA plates, and viable bacteria (cfu) were counted the following day. Data are shown as % bacterial killing, where killing activity in the presence of cathelicidin only represents 100% (n = 6, *p < 0.05, ****p < 0.0001, one-way ANOVA, multiple comparisons).
(§2) (A) Schematics of HS/HP structure. […] (F) BaclightGreen-labeled S. aureus (~400 cfu) was incubated with 0.5 μM CRAMP without or with 5 μg/mL HP, NDS-HP, 2ODS-HP, 6ODS-HP, H, NS-H, or NS2OS-H for 30 min at room temperature. Bacteria were washed, incubated with 10 μg/mL propidium iodide for 15 min at 4°C, and live (green) and dead (red) bacteria were visualized by fluorescence microscopy.
(§3) Late log phase S. aureus USA300 was washed with phosphate buffer (8.2 mM Na2HPO4, 1.8 mM KH2PO4, pH 7.4) and approximately 500 cfu were incubated with cathelicidins with or without excess GAGs for 2 h at 37°C as indicated. Viable bacteria were enumerated by plating onto TSA plates and counting colonies the following day. Results are shown as % bacterial killing, where 100% killing represents data derived from the group of bacteria incubated with cathelicidins only.

CAP-18 = assay: Inhibition by glycosaminoglycans of S. aureus killing by CAP-18; type: cell-based, rabbit; details: 5 μg/mL glycosaminoglycan, 0.5 μM CAP-18, ~500 cfu USA300, phosphate buffer pH 7.4, 2 h at 37°C, n = 6
Experimental: as §1, §2, §3

CRAMP [1] = assay: Inhibition by glycosaminoglycans of S. aureus killing by CRAMP; type: cell-based, mouse; details: 5 μg/mL glycosaminoglycan, 0.5 μM CRAMP, ~500 cfu USA300, phosphate buffer pH 7.4, 2 h at 37°C, n = 6
Experimental: as §1, §2, §3
(§4) Figure S1. A) CRAMP expression was measured in uninfected Wt corneas or Wt corneas isolated at 4 h post-S. aureus USA300 infection. Briefly, eyes were enucleated, corneas were dissected, and isolated corneas were incubated with 10 mg/ml dispase II overnight at 4°C to peel off the corneal epithelium. Total RNA was purified from the corneal epithelium, and 1 ng of total RNA was analyzed by qRT-PCR for CRAMP or β-actin expression (n = 3, **p < 0.01). […] Bacterial killing was measured by plating serial dilutions onto TSA plates and counting colonies the following day. Results are shown as % bacterial survival (n = 4). Figure S2. […] Bacterial killing (%) was enumerated by plating serial dilutions onto TSA plates and counting colonies the following day (n = 5). B) Effects of pre-incubating S. aureus with glycosaminoglycans on bacterial killing by cathelicidins were examined by incubating 500 cfu of USA300 without or with 5 μg/ml HS, HP, DS, or CS for 30 min at 37°C. Bacteria were washed three times with buffer, incubated with 0.5 μM CRAMP for 2 h at 37°C, and % bacterial killing was determined by plating serial dilutions of samples (n = 4). Figure S3. S. aureus USA300 stained with BaclightGreen was incubated with 0.5 μM CRAMP in the absence or presence of 5 μg/ml HP, NDS-HP, 2ODS-HP, 6ODS-HP, H, NS-H, or NS2OS-H for 30 min at room temperature. Bacteria were washed and incubated with 10 μg/ml propidium iodide for 15 min on ice. Images were captured with a fluorescence microscope (Zeiss Axiovert 40 CFL). Quantification of % dead bacteria (out of total bacteria in field) is shown at the bottom. Figure S4. Alexa 647-conjugated CRAMP (0.5 μM) was incubated with fixed S. aureus USA300 without or with 5 μg/ml of the indicated glycosaminoglycans and chemically-desulfated HP compounds for 1 h at room temperature. S. aureus-associated CRAMP fluorescence was analyzed by flow cytometry. Representative FACS density plots are shown where heparan compounds containing 2-O-sulfated motifs decreased Alexa CRAMP binding by over 79% compared to the control (No GAG), except for NDS-HP where the reduction was approximately 65%. Fig. S5. Relative mRNA levels of A) Ndst1 and B) Sdc1 in the corneal epithelium of Hs2st^fl/fl, Krt12Cre, and Hs2st^fl/fl/Krt12Cre mice (n = 3).

SMAP-29 = assay: Inhibition by glycosaminoglycans of S. aureus killing by SMAP-29; type: cell-based, sheep; details: 5 μg/mL glycosaminoglycan, 0.5 μM SMAP-29, ~500 cfu USA300, phosphate buffer pH 7.4, 2 h at 37°C, n = 6
Experimental: as §1, §2, §3

CRAMP [2] = assay: Alexa 647-CRAMP binding to Affi-Gel HP beads, competition by HP compounds (flow cytometry); set-up: species or system mouse; details: 20 μg/mL competitor, 0.5 μM Alexa 647-conjugated CRAMP, 1 h at room temperature, n = 4
Experimental: (§5) FIGURE 4 | 2-O-sulfated heparan compounds directly bind to CRAMP with high affinity. Alexa 647-conjugated CRAMP (0.5 μM) was incubated with Affi-Gel HP beads without or with 20 μg/mL of HP, NDS-HP, 2ODS-HP, or 6ODS-HP for 1 h at room temperature. CRAMP fluorescence associated with Affi-Gel HP beads was analyzed by flow cytometry. Results are shown as (A) % CRAMP binding and (B) mean fluorescence intensity (MFI) of CRAMP binding (n = 4, ***p < 0.001, ****p < 0.0001). ITC analyses for CRAMP binding to HP were performed at 25°C using a MicroCal iTC 200 titration calorimetry. The fitted heat curves of titrating CRAMP binding to (C) HP and (D) 2ODS-HP are shown.
(§6) Affi-Gel HP beads were washed and resuspended in PBS. Affi-Gel HP beads (20 μL) were incubated with 0.5 μM Alexa 647-labeled CRAMP without or with 20 μg/mL HP, chemically desulfated HP, or chemoenzymatically sulfated H for 1 h at room temperature. Affi-Gel HP beads were washed with PBS, and the Alexa 647-labeled CRAMP bound to them was assessed by flow cytometry.

CRAMP [3] = assay: ITC of HP and 2ODS-HP binding to CRAMP; set-up: species or system mouse; details: 25.0°C, 50 mM HEPS pH 7.4, 150 mM NaCl
Experimental: as §5
ITC of CRAMP binding to HP and modified HP was carried out at 25.0°C using a MicroCal iTC 200 titration calorimetry system (Malvern, UK). A stock solution of CRAMP was diluted to 12.5 μM in 50 mM HEPS, pH 7.4, 150 mM NaCl, and approximately 300 μL of this solution was loaded into the ITC cell and titrated with 25 μM of HP or 2ODS-HP in the same buffer. Briefly, titration injection of HP or 2ODS-HP consisted of a first injection of 0.4 μL followed by 18 consecutive injections of 2 μL of 0.8 s duration and with a 2.5 min interval between injections. […] The enthalpy change of binding (ΔH), the binding affinity, and the binding stoichiometry were determined.

CRAMP [4] = assay: Alexa 647-CRAMP binding to fixed S. aureus, inhibition by glycosaminoglycans (flow cytometry); set-up: species or system mouse; details: 0.5 μM Alexa 647-conjugated CRAMP
Experimental: Alexa 647-conjugated CRAMP (0.5 μM) was incubated with 2% paraformaldehyde-fixed Staphylococcus aureus USA300 without or with 5 μg/mL HP, HS, CS, DS, NDS-HP, 6ODS-HP, or 2ODS-HP for 1 h at room temperature. S. aureus-associated CRAMP fluorescence was analyzed by flow cytometry. Results are shown as % Alexa CRAMP binding (n = 3, ****p < 0.0001).
Alexa 647 fluorophore was conjugated to CRAMP using the Lightning-Link Rapid FluoProbes647H labeling kit following the manufacturer’s instructions. S. aureus USA300 fixed in 2% paraformaldehyde for 20 min was resuspended in 20 μL of phosphate buffer and incubated with 0.5 μM of Alexa 647-labeled CRAMP for 30 min at room temperature without or with glycosaminoglycans. Unbound Alexa 647-labeled CRAMP was removed by washing with phosphate buffer, and Alexa 647-labeled CRAMP bound to bacteria was assessed by flow cytometry.
as §4

[5] = Alexa 647-CRAMP binding to Affi-Gel HP beads, direct and with unlabeled peptides (flow cytometry); details: 20-fold excess (5 μM) unlabeled peptide, 250 nM Alexa 647-labeled CRAMP, 1 h at room temperature, n = 3–4
Experimental: FIGURE 5 | Secondary structure of mature CRAMP is required for binding to heparan compounds. (A) Sequence and pI (in parentheses) of the 34 amino acid long mature CRAMP and four 10- or 20-mer peptides that span amino acids 4–13 (CR-1), 13–22 (CR-2), 24–33 (CR-3), or 4–23 (CR-4) of mature CRAMP. (B) Affi-Gel HP beads were incubated with 250 nM of Alexa 647-labeled CRAMP without or with 5 μM of unlabeled CRAMP, heat-treated CRAMP, CR-1, CR-2, CR-3, or CR-4 peptides for 1 h at room temperature. […] (C) ITC analyses of heat-treated CRAMP binding to HP. The fitted heat curve of titrating CRAMP binding to HP is shown. TEXT PRINTED IN THE PICTURE: (A) CRAMP: (10.0) | (A) CR-1: (9.6) | (A) CR-2: (10.6) | (A) CR-3: (5.9) | (A) CR-4: (10.4) DOUBTS OF THE COPYIST ABOUT THIS PICTURE: Panel A: the numbers in brackets after the peptide names are printed without any measure or unit in the picture, so they are given as printed, without a measure.
as §6

S. aureus USA300 [6] = assay: Bacteria live/dead staining (BaclightGreen / propidium iodide); type: cell-based, Staphylococcus aureus; details: 0.5 μM CRAMP without or with 5 μg/mL compound, 30 min at room temperature, propidium iodide 10 μg/mL
Experimental: as §2
S. aureus USA300 was stained by BaclightGreen (Thermo Fisher) following the manufacturer’s instructions. Briefly, an overnight culture of S. aureus was resuspended in PBS and incubated with 100 μM BaclightGreen for 15 min at room temperature. […] Bacteria were mounted on glass slides and images were captured with a fluorescence microscope (Zeiss Axiovert 40 CFL). […]
Figure S1. A) CRAMP expression was measured in uninfected Wt corneas or Wt corneas isolated at 4 h post-S. aureus USA300 infection. […] Total RNA was purified from the corneal epithelium, and 1 ng of total RNA was analyzed by qRT-PCR for CRAMP or β-actin expression (n = 3, **p < 0.01). […] Bacterial killing was measured by plating serial dilutions onto TSA plates and counting colonies the following day. […] Bacteria were washed three times with buffer, incubated with 0.5 μM CRAMP for 2 h at 37°C, and % bacterial killing was determined by plating serial dilutions of samples (n = 4). […] Images were captured with a fluorescence microscope (Zeiss Axiovert 40 CFL). […]

S. aureus USA300 [7] = assay: Pre-incubation of S. aureus with glycosaminoglycans, washing, then killing by cathelicidin; type: cell-based, Staphylococcus aureus; details: 5 μg/ml glycosaminoglycan pre-incubated with 500 cfu USA300 30 min at 37°C, washed three times, then 0.5 μM CRAMP 2 h at 37°C, n = 4
Experimental: Figure S1. A) CRAMP expression was measured in uninfected Wt corneas or Wt corneas isolated at 4 h post-S. aureus USA300 infection. Briefly, eyes were enucleated, corneas were dissected, and isolated corneas were incubated with 10 mg/ml dispase II overnight at 4°C to peel off the corneal epithelium. Total RNA was purified from the corneal epithelium, and 1 ng of total RNA was analyzed by qRT-PCR for CRAMP or β-actin expression (n = 3, **p < 0.01). […] Bacterial killing was measured by plating serial dilutions onto TSA plates and counting colonies the following day. Results are shown as % bacterial survival (n = 4). Figure S2. […] Bacterial killing (%) was enumerated by plating serial dilutions onto TSA plates and counting colonies the following day (n = 5). B) Effects of pre-incubating S. aureus with glycosaminoglycans on bacterial killing by cathelicidins were examined by incubating 500 cfu of USA300 without or with 5 μg/ml HS, HP, DS, or CS for 30 min at 37°C. Bacteria were washed three times with buffer, incubated with 0.5 μM CRAMP for 2 h at 37°C, and % bacterial killing was determined by plating serial dilutions of samples (n = 4). Figure S3. […] Images were captured with a fluorescence microscope (Zeiss Axiovert 40 CFL). Quantification of % dead bacteria (out of total bacteria in field) is shown at the bottom. […] S. aureus-associated CRAMP fluorescence was analyzed by flow cytometry. […]

Substance | Inhibition of S. aureus killing by LL-37 (LL-37) | Inhibition of S. aureus killing by CAP-18 (CAP-18) | Inhibition of S. aureus killing by CRAMP (CRAMP [1]) | Inhibition of S. aureus killing by SMAP-29 (SMAP-29) | Inhibition of CRAMP binding to HP beads (CRAMP [2]) | Reduction of mean fluorescence intensity (MFI) of CRAMP binding to HP beads compared to control (CRAMP [2]) | Heat changes on incubation with CRAMP (ITC) (CRAMP [3]; 12.5 μM CRAMP titrated with 25 μM 2ODS-HP) | Decrease of MFI of Alexa-labeled CRAMP binding to S. aureus compared to control (CRAMP [4]; 5 μg/mL glycosaminoglycan, 2% paraformaldehyde-fixed S. aureus USA300, 1 h at room temperature, n = 3) | Reduction of proportion of CRAMP-bound bacteria (Alexa CRAMP binding, FACS density plots) compared to No GAG (CRAMP [4]; 5 μg/ml glycosaminoglycan, fixed S. aureus USA300, 1 h at room temperature, representative plots) | Inhibition of Alexa CRAMP binding to HP beads by unlabeled peptide [5] [%] | Live (green) / dead (red) state of most bacteria (S. aureus USA300 [6]) | Kd (CRAMP [3]; 12.5 μM CRAMP in cell, titrated with 25 μM HP, read-out: Binding affinity for CRAMP binding to HP (ITC)) [nM] | Inhibition of bacterial killing by cathelicidins after pre-incubation with bacteria and washing away (S. aureus USA300 [7])
2-O-desulfated HP [2ODS-HP] | significantly inhibited the ability of HP to inhibit | significantly inhibited the ability of HP to inhibit | significantly inhibited the ability of HP to inhibit | significantly inhibited the ability of HP to inhibit | 25% | not | did not produce significant heat changes | no effect | not | – | – | – | –
CR-4: 20-mer peptide, amino acids 4–23 of mature CRAMP (LAGLLRKGGEKIGEKLKKIG; Cathelicidin antimicrobial peptide; UniProt P51437 138-157, looked up, fragment) | – | – | – | – | – | – | – | – | – | 34.7 | – | – | –
GLLRKGGEKIGEKLKKIGQKIKNFFQKLVPQPEQ [CRAMP] | – | – | – | – | – | – | – | – | – | 92.7 | dead | – | –
heparin [HP] | over 70% | over 70% | over 70% | over 70% | over 75% | – | – | – | – | – | – | 45.2 | did not inhibit
